Data: US6291470A, “Indole derivatives process for producing the same and medicinal uses of the same” (Toray Industries, Inc., priority 1992, dated 2001)

Experiments:
δ-opioid receptor = target: T1, δ-opioid receptor (Mus musculus, UniProt P32300); test: δ-opioid antagonist activity against DPDPE in mouse vas deferens (MVD); details: for Ratio of IC50 Values: DPDPE IC50 with/without 100 nM test compound; for Ratio of IC50 Values / Kb: 20 min; for Kb: against DPDPE, test compound 100 nM, read-out: Ke
T1 construct: from tissue; host or cells: vas deferens of male ddy mice
T1 sequence (P32300 whole entry): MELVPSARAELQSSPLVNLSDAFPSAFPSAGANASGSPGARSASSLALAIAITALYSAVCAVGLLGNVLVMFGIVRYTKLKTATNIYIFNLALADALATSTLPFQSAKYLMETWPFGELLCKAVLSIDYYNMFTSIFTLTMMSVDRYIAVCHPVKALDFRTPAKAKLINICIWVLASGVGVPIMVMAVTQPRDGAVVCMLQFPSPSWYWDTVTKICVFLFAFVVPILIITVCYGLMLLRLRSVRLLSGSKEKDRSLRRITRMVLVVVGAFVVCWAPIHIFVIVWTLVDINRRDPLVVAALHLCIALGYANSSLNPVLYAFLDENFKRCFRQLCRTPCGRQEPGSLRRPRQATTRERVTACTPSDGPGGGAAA
Experimental: Using mouse vas deferens (MVD), the antagonist activity against DPDPE which is a δ-opioid agonist was checked.
In this experiment, ddy male mice were used. In a Magnus' tube which is filled with Krebes-Henseleit solution (NaCl […]; KCl 4.7 mM; CaCl2 2.5 mM; KH2 PO4 1.1 mM; NaHCO3 25 mM; glucose 11 mM) kept at 37° C., and into which an atmosphere consisting of 5% carbon dioxide and 95% oxygen was flown, vas deferens taken from the animals was suspended. Electric stimulation was applied through ring-shaped platinum electrodes mounted on the upper and lower portions of the tube at a frequency of 0.1 Hz and 5.0 mS duration. The contraction of the tissue was recorded on polygraph using isometric transducer.
Then 100 nM of the test compound was added. Twenty minutes later, DPDPE was begun to be added cumulatively. The ratio of IC50 values in the presence and absence of the test compound, Ke value (the molar concentration of the test compound necessary for translating the dose-effect curve to the curve of twice dose) and pA2 value were determined. The pA2 value was determined by the method of Shild et al (Shild, H. O., Br. J. Pharmac. Chamotehr., 4, 277 (1949)). That is, the logarithm of the test compound (log[test compound]) was plotted along the abscissa and the logarithm of the value obtained by subtracting 1 from the ratio of IC50 values was plotted in the presence and absence of the test compound [log(dose ratio-1)] along the ordinate. The pA2 value was determined from the value on the abscissa when the value on the ordinate of the obtained line is 0.

[1] = test system: delayed type hypersensitivity; test: Mouse Delayed Type Hypersensitivity Reaction Suppression Test-2 (donor spleen cells, subcutaneous administration); type: in vivo; details: C57BL/6 spleen cells; subcutaneous everyday from day of sensitization, totally 8 days; BALB/c
Description: BALB/c mice (male, 7 weeks old) were used, and each group consisted of 4-5 mice. Spleen cells (1×10^7 ) obtained from a donor mouse (C57BL/6) was subcutaneously administered to sensitize the mice. On Day 7 from the sensitization, the spleen cells (5×10^6) of the donor were subcutaneously administered on the right hing leg and spleen cells (5×10^6) obtained from a mouse of the same line as the recipient mice were subcutaneously administered on the left footpad. Twenty four hours later, the thicknesses of the right and left footpads were measured with a dial thickness gage, and the difference in thicknesses of the right and left footpads before the induction of the reaction and 24 hours after the induction of the reaction was employed as the index of the degree of the reaction.
The test compound was dissolved in 10% DMSO-water and was subcutaneously administered everyday from the day of sensitization to the day of induction of the reaction, totally 8 days. In the control group, 10% DMSO-water alone was administered in the same manner. The volume of administration was 10 ml/kg in both study groups and in the control group. Delayed Type Hypersensitivity Reaction=(thickness of right foodpad after induction-thickness of right footpad before induction)-(thickness of […] before induction) [formula]
wherein C means delayed type hypersensitivity reaction of the group to which the test compound was administered and D means the delayed type hypersensitivity reaction of the group to which vehicle was administered.

[2] = test system: delayed type hypersensitivity; test: Mouse Delayed Type Hypersensitivity Reaction Suppression Test-1 (SRBC); type: in vivo; details: SRBC sensitization; subcutaneous, everyday from 3 days before sensitization, totally 8 days; BALB/c
Experimental: BALB/c mice (male, 7 weeks old) were used. The mice were classified into groups depending on the body weight, each group consisting of 7-8 mice. Each of the mice was sensitized by subcutaneously administering […] of SRBC (8×10^8 in saline) on the heel of the left hing leg. On day 4 from the sensitization, 25 μl of SRBC (8×10^9 in saline) was subcutaneously administered on the right footpad so as to induce delayed type hypersensitivity. The difference in the thicknesses of the right footpad before the induction of reaction and 24 hours after the induction of the reaction was employed as an index of the degree of the reaction.
The test compound was dissolved in 10% DMSO-water and was subcutaneously administered everyday from 3 days before the sensitization to the day of induction of the reaction, totally 8 days. In the control group, 10% DMSO-water alone was administered in the same manner. The volume of administration was 5 ml/kg in both study groups and in the control group.
The % suppression of the delayed type hypersensitivity reaction was calculated according to the following equation: [formula]
wherein A means the difference in the thickness of the right hind leg before and after the reaction in control group, and B means the difference in the thickness of the right hind leg before and after the reaction in the group to which the test compound was administered.

brain cells = details: Kokai No. 3-218313; cited from earlier work
[3] = test system: Cerebral cortex nerve cells; test: Brain cell-protecting action, MTT method; type: cell-based, rat; details: study group / control group, 570 nm, 10 μM, 3 days culture
Experimental: The brain cell-protecting action was examined by MTT [3-(4,5-dimethylthiazol-2-yl)-2,5-diphenyltetrazolium bromide] method. MTT yields a dark blue formazan compound by mitochondria in living cells. This compound was dissolved in isopropanol and absorbance at 570 nm was measured, thereby measuring the number of living cells.
Cerebral cortex nerve cells of fetal rats of 17 days old were placed in wells of a 96-well plate at a population density of 1×10^5 cells/cm^2. Then 10 μM of a test compound was added and the cells were cultured in 200 μl of mixed medium of D-MEM/F.12 (1:1) for 3 days (37° C., 5%CO2). In a control group, the medium alone was added Then […] of MTT solution in PBS (6mg/ml) was added and the mixture was allowed to react for 3 hours (37° C., 5% CO2). After removing the culture medium, 100 μl of isopropanol was added and the absorbance was measured.
The ratio of the absorbances of the study group and the control group was employed as an index of brain cell-protecting action.

SMILES | Ratio of IC50 Values (δ-opioid receptor) | Kb (δ-opioid receptor) [nM] | % Suppression [1] [%] | % Suppression [2] [%] | brain cell-protecting action (in words) (brain cells) | Ratio of Absorbances [3] | δ-antagonist activity relative to NTI (times that of NTI) (δ-opioid receptor)
Oc1ccc2c3c1O[C@H]1c4[nH]c5c(-c6ccccc6)cccc5c4C[C@@]4(O)[C@@H](C2)N(CC2CC2)CC[C@]314 [Compound 120, 17-cyclopropylmethyl-6,7-didehydro-4,5α-epoxy-3,14β-dihydroxy-7'-phenyl-6,7-2',3'-indolomorphinan] | 17.0 | 6.25 | 46 | – | – | – | –
CCCOC(=O)c1ccc2c3c([nH]c2c1)[C@@H]1Oc2c(O)ccc4c2[C@@]12CCN(CC1CC1)[C@H](C4)[C@]2(O)C3 [Compound 393, 17-cyclopropylmethyl-6,7-didehydro-4,5α-epoxy-3,14β-dihydroxy-6'-propoxycarbonyl-6,7-2',3'-indolomorphinan] | 12.3 | 8.85 | 33 | – | – | – | –
CSc1ccc2c3c([nH]c2c1)[C@@H]1Oc2c(O)ccc4c2[C@@]12CCN(CC1CC1)[C@H](C4)[C@]2(O)C3 [Compound 43, 17-cyclopropylmethyl-6,7-didehydro-4,5α-epoxy-3,14β-dihydroxy-6'-methylthio-6,7-2',3'-indolomorphinan] | 168 | 0.6 | 27 | 26 | – | – | –
N#Cc1ccc2c3c([nH]c2c1)[C@@H]1Oc2c(O)ccc4c2[C@@]12CCN(CC1CC1)[C@H](C4)[C@]2(O)C3 [Compound 53, 17-cyclopropylmethyl-6,7-didehydro-4,5α-epoxy-3,14β-dihydroxy-6'-cyano-6,7-2',3'-indolomorphinan] | 62.3 | 1.63 | – | 18 | – | – | –
C[S+]([O-])c1cccc2c3c([nH]c12)[C@@H]1Oc2c(O)ccc4c2[C@@]12CCN(CC1CC1)[C@H](C4)[C@]2(O)C3 (single isomer, unassigned) [Compound 591, 17-cyclopropylmethyl-6,7-didehydro-4,5α-epoxy-3,14β-dihydroxy-7'-methylsulfinyl-6,7-2',3'-indolomorphinan] | – | – | 16 | – | – | – | –
CSc1cccc2c3c([nH]c12)[C@@H]1Oc2c(O)ccc4c2[C@@]12CCN(CC1CC1)[C@H](C4)[C@]2(O)C3 [Compound 121, 17-cyclopropylmethyl-6,7-didehydro-4,5α-epoxy-3,14β-dihydroxy-7'-methylthio-6,7-2',3'-indolomorphinan] | 33.6 | 3.07 | – | 20 | – | – | –
O=[N+]([O-])c1cccc2c3c([nH]c12)[C@@H]1Oc2c(O)ccc4c2[C@@]12CCN(CC1CC1)[C@H](C4)[C@]2(O)C3 [Compound 136, 17-cyclopropylmethyl-6,7-didehydro-4,5α-epoxy-3,14β-dihydroxy-7'-nitro-6,7-2',3'-indolomorphinan] | 192 | 0.52 | – | 18 | – | – | –
Oc1ccc2c3c1O[C@H]1c4[nH]c5c(c4C[C@@]4(O)[C@@H](C2)N(CC2CC2)CC[C@]314)C[C@@]1(O)[C@H]2Cc3ccc(O)c4c3[C@@]1(CCN2CC1CC1)[C@H]5O4 [nor-BNI, reference compound] | – | – | – | – | has brain cell-protecting action | 7.60 | –
O=[N+]([O-])c1cccc2[nH]c3c(c12)C[C@@]1(O)[C@H]2Cc4ccc(O)c5c4[C@@]1(CCN2CC1CC1)[C@H]3O5 [Compound 78, 17-cyclopropylmethyl-6,7-didehydro-4,5α-epoxy-3,14β-dihydroxy-4'-nitro-6,7-2',3'-indolomorphinan] | 148 | 7.25 | – | 36 | – | – | –
CCOC(=O)c1cccc2c3c([nH]c12)[C@@H]1Oc2c(O)ccc4c2[C@@]12CCN(CC1CC1)[C@H](C4)[C@]2(O)C3 [Compound 119, 17-cyclopropylmethyl-6,7-didehydro-4,5α-epoxy-3,14β-dihydroxy-7'-ethoxycarbonyl-6,7-2',3'indolomorphinan] | 635 | 0.16 | 31 | 12 | – | – | 1.3-1.6 times
